From BindingDB's records for doi:10.1021/jm00126a016 (G. D. Searle, 1989)

Target: Glutamate receptor ionotropic NMDA, PCP site (Rattus norvegicus)
Assay: Inhibition of [3H]1-[1-(2-thienyl) piperidine ([3H]TCP) binding to phencyclidine receptor

Structure (SMILES) | IC50 [µM]
CN1CCc2ccccc2C1 | > 30
CC1Cc2ccccc2C(C)N1 (stereo not drawn) | > 30
c1ccc2c(c1)CCNC2c1ccc2ccccc2c1 (stereo not drawn) | > 30
C=CCN1C(C)Cc2ccccc2C1C (stereo not drawn) | 5.4
c1ccc(C2NCc3ccccc32)cc1 (stereo not drawn) | > 30
CC(C)C1NCCc2ccccc21 (stereo not drawn) | 11
Clc1ccc(C2NCCc3ccccc32)cc1 (stereo not drawn) | 5.3
Fc1ccc(C2NCCc3ccccc32)cc1 (stereo not drawn) | 4.9
